Reference: US11117915B2, “Antibacterial aminoglycoside analogs” (Cipla USA, Inc., priority 2007, dated 2021)
In brackets after ≈: the same amount, converted by molar mass. Read-outs that look alike come from different tables or passages of the source.

What was measured:
E. coli ATCC 25922 = assay: MIC assay, CLSI broth microdilution, E. coli ATCC 25922 (AECO001); format: cell-based; conditions: for MIC: Escherichia coli, read-out: MIC AECO001
Protocol: (§1) Minimum inhibitory concentrations (MIC) were determined by reference Clinical and Laboratory Standards Institute (CLSI) broth microdilution methods per M7-A7 [2006]. Quality control ranges utilizing E. coli ATCC 25922, P. aeruginosa ATCC 27853 and S. aureus ATCC 29213, and interpretive criteria for comparator agents were as published in CLSI M100-S17 [2007]. Briefly, serial two-fold dilutions of the test compounds were prepared at 2× concentration in Mueller Hinton Broth. The compound dilutions were mixed in 96-well assay plates in a 1:1 ratio with bacterial inoculum. The inoculum was prepared by suspension of a colony from an agar plate that was prepared the previous day. Bacteria were suspended in sterile saline and added to each assay plate to obtain a final concentration of 5×10^5 CFU/mL. The plates were incubated at 35° C. for 20 hours in ambient air.
These MIC assays were conducted following the same protocol as set forth in Example 110. As shown, substituted sisomicin derivatives with groups other than methyl at the 6′-position have improved activity against strains expressing the AAC6′-modifying enzymes.

P. aeruginosa ATCC 27853 = assay: MIC assay, CLSI broth microdilution, P. aeruginosa ATCC 27853 (APAE001); format: cell-based; conditions: for MIC: Pseudomonas aeruginosa, read-out: MIC APAE001
Protocol: as §1

[1] = AECO001 is ATCC25922, 35° C., 20 hours
[2] = APAE001 is ATCC27853, 35° C., 20 hours

SMILES	MIC (E. coli ATCC 25922; ATCC25922, 20 h)	MIC (P. aeruginosa ATCC 27853; ATCC27853, 20 h)	other results
CN[C@@H]1[C@@H](O)[C@@H](O[C@@H]2[C@@H](O)[C@H](O[C@H]3OC(CNCCCN)=CC[C@H]3N)[C@@H](N)C[C@H]2NS(=O)(=O)CCN)OC[C@]1(C)O [Example 26, 6′-(3-Amino-propyl)-1-(2-amino-ethylsulfonamide)-sisomicin]	1 to 16 µg/mL (≈ 1.63 to 26.2 µM)	1 to 16 µg/mL (≈ 1.63 to 26.2 µM)	–
CN[C@@H]1[C@@H](O)[C@@H](O[C@@H]2[C@@H](O)[C@H](O[C@H]3OC(CNCC(O)CN)=CC[C@H]3N)[C@@H](N)C[C@H]2NC(=O)C2(O)CCNC2)OC[C@]1(C)O (stereo partly drawn) [Example 42, 6′-(2-Hydroxy-3-amino-propyl)-1-(3-hydroxy-pyrrolidin-3-yl-acetyl)-sisomicin]	1 to 16 µg/mL (≈ 1.58 to 25.2 µM)	1 to 16 µg/mL (≈ 1.58 to 25.2 µM)	–
CNCC1=CC[C@@H](NC(=N)N)[C@@H](O[C@H]2[C@H](O)[C@@H](O[C@H]3OC[C@](C)(O)[C@H](NC)[C@H]3O)[C@H](N)C[C@@H]2N)O1 [Example 108, 6′-Methyl-2′-guanidinium-sisomicin]	< 1 µg/mL	1 to 16 µg/mL (≈ 1.99 to 31.8 µM)	–
CN[C@@H]1[C@@H](O)[C@@H](O[C@@H]2[C@@H](O)[C@H](O[C@H]3OC(CN)=CC[C@H]3NC[C@H]3C[C@H](N)C3)[C@@H](N)C[C@H]2NC(=O)[C@@H](O)CCN)OC[C@]1(C)O [Example 104, 2′-(Methyl-trans-3-amino-cyclobutyl)-1-(4-amino-2(S)-hydroxy-butyryl)-sisomicin]	< 1 µg/mL	1 to 16 µg/mL (≈ 1.58 to 25.3 µM)	–
CN[C@@H]1[C@@H](O)[C@@H](O[C@@H]2[C@@H](O)[C@H](O[C@H]3OC(CNCC4(CN)CC4)=CC[C@H]3N)[C@@H](N)C[C@H]2NC(=O)[C@@H](O)CN)OC[C@]1(C)O [Example 66, 6′-(Methyl-1-aminomethyl-cyclopropyl)-1-(3-amino-2(S)-hydroxy-propionyl)-sisomicin]	< 1 µg/mL	1 to 16 µg/mL (≈ 1.62 to 25.9 µM)	–
CN[C@@H]1[C@@H](O)[C@@H](O[C@@H]2[C@@H](O)[C@H](O[C@H]3OC(CNCC(O)CCN)=CC[C@H]3N)[C@@H](N)C[C@H]2NC(=O)C(O)C2CNC2)OC[C@]1(C)O (stereo partly drawn) [Example 77, 6′-(2-Hydroxy-4-amino-butyl)-1-(2-(azetidin-3-yl)-2-hydroxy-acetyl)-sisomicin]	1 to 16 µg/mL (≈ 1.54 to 24.7 µM)	1 to 16 µg/mL (≈ 1.54 to 24.7 µM)	–
CN[C@@H]1[C@@H](O)[C@@H](O[C@@H]2[C@@H](O)[C@H](O[C@H]3OC(CN)=CC[C@H]3NCC(N)CO)[C@@H](N)C[C@H]2NC(=O)[C@@H](O)CCN)OC[C@]1(C)O (stereo partly drawn) [Example 97, 2′-(2-Amino-propanol)-1-(4-amino-2(S)-hydroxy-butyryl)-sisomicin]	< 1 µg/mL	1 to 16 µg/mL (≈ 1.61 to 25.7 µM)	–
CN[C@@H]1[C@@H](O)[C@@H](O[C@@H]2[C@@H](O)[C@H](O[C@H]3OC(CNCC(O)CCN)=CC[C@H]3N)[C@@H](N)C[C@H]2NC(=O)C2(O)CCNC2)OC[C@]1(C)O (stereo partly drawn) [Example 35]	< 1 µg/mL	1 to 16 µg/mL (≈ 1.54 to 24.7 µM)	–
CN[C@@H]1[C@@H](O)[C@@H](O[C@@H]2[C@@H](O)[C@H](O[C@H]3OC(CNCC4CC4)=CC[C@H]3N)[C@@H](N)C[C@H]2NC(=O)[C@@H](O)CN)OC[C@]1(C)O [Example 13, 6′-(Methyl-cyclopropyl)-1-(3-amino-2(S)-hydroxy-propionyl)-sisomicin]	–	–	MIC (E. coli ATCC 25922; [1]): 1 to 16 µg/mL (≈ 1.7 to 27.2 µM); MIC AECO001 (E. coli ATCC 25922; Table 3, E. coli ATCC25922): 1 µg/mL (≈ 1.7 µM); MIC (P. aeruginosa ATCC 27853; [2]): > 16 µg/mL
CN[C@@H]1[C@@H](O)[C@@H](O[C@@H]2[C@@H](O)[C@H](O[C@H]3OC(CNC[C@H]4C[C@H](N)C4)=CC[C@H]3N)[C@@H](N)C[C@H]2NC(=O)C(O)C2CNC2)OC[C@]1(C)O (stereo partly drawn) [Example 72, 6′-(Methyl-trans-3-amino-cyclobutyl)-1-(2-(azetidin-3-yl)-2-hydroxy-acetyl)-sisomicin]	1 to 16 µg/mL (≈ 1.55 to 24.9 µM)	1 to 16 µg/mL (≈ 1.55 to 24.9 µM)	–
CN[C@@H]1[C@@H](O)[C@@H](O[C@@H]2[C@@H](O)[C@H](O[C@H]3OC(CN)=CC[C@H]3NCC(C)(C)CN(C)C)[C@@H](N)C[C@H]2NC(=O)[C@@H](O)CCN)OC[C@]1(C)O [Example 94, 2′-(N, N-Dimethyl-2,2-dimethyl-3-amino-propyl)-1-(4-amino-2(S)-hydroxy-butyryl)-sisomicin]	1 to 16 µg/mL (≈ 1.51 to 24.2 µM)	> 16 µg/mL	–
CN[C@@H]1[C@@H](O)[C@@H](O[C@@H]2[C@@H](O)[C@H](O[C@H]3OC(CNCC4CNC4)=CC[C@H]3N)[C@@H](N)C[C@H]2NC(=O)[C@@H](O)CN)OC[C@]1(C)O [Example 73, 6′-(Methyl-azetidin-3-yl)-1-(3-amino-2(S)-hydroxy-propionyl)-sisomicin]	1 to 16 µg/mL (≈ 1.66 to 26.5 µM)	1 to 16 µg/mL (≈ 1.66 to 26.5 µM)	–
CN[C@@H]1[C@@H](O)[C@@H](O[C@@H]2[C@@H](O)[C@H](O[C@H]3OC(CNCC(O)CO)=CC[C@H]3N)[C@@H](N)C[C@H]2NC(=O)[C@H](O)CCN)OC[C@]1(C)O (stereo partly drawn) [Example 3, 6′-(2-Hydroxy-propanol)-1-(4-amino-2(R)-hydroxy-butyryl)-sisomicin]	1 to 16 µg/mL (≈ 1.61 to 25.7 µM)	> 16 µg/mL	–
CN[C@@H]1[C@@H](O)[C@@H](O[C@@H]2[C@@H](O)[C@H](O[C@H]3OC(CNCCO)=CC[C@H]3N)[C@@H](N)C[C@H]2NC(=O)C(O)C2CNC2)OC[C@]1(C)O (stereo partly drawn) [Example 75, 6′-(2-Hydroxy-ethyl)-1-(2-(azetidin-3-yl)-2-hydroxy-acetyl)-sisomicin]	1 to 16 µg/mL (≈ 1.65 to 26.5 µM)	> 16 µg/mL	–
CN[C@@H]1[C@@H](O)[C@@H](O[C@@H]2[C@@H](O)[C@H](O[C@H]3OC(CNCC4(CN)CC4)=CC[C@H]3N)[C@@H](N)C[C@H]2NC(=O)C(O)C2CNC2)OC[C@]1(C)O (stereo partly drawn) [Example 74, 6′-(Methyl-1-aminomethyl-cyclopropyl)-1-(2-(azetidin-3-yl)-2-hydroxy-acetyl)-sisomicin]	1 to 16 µg/mL (≈ 1.55 to 24.9 µM)	> 16 µg/mL	–
CN[C@@H]1[C@@H](O)[C@@H](O[C@@H]2[C@@H](O)[C@H](O[C@H]3OC(CNCCCCN)=CC[C@H]3N)[C@@H](N)C[C@H]2NC(=O)[C@@H](O)CCN)OC[C@]1(C)O [Example 43, 6′-(4-Amino-butyl)-1-(4-amino-2(S)-hydroxy-butyryl)-sisomicin]	< 1 µg/mL	< 1 µg/mL	–
CN[C@@H]1[C@@H](O)[C@@H](O[C@@H]2[C@@H](O)[C@H](O[C@H]3OC(CNCC(O)C(N)=O)=CC[C@H]3N)[C@@H](N)C[C@H]2NC(=O)[C@@H](O)CN)OC[C@]1(C)O (stereo partly drawn) [Example 21, 6′-(2-Hydroxy-3-propionamide)-1-(3-amino-2(S)-hydroxy-propionyl)-sisomicin]	1 to 16 µg/mL (≈ 1.61 to 25.7 µM)	1 to 16 µg/mL (≈ 1.61 to 25.7 µM)	–
CN[C@@H]1[C@@H](O)[C@@H](O[C@@H]2[C@@H](O)[C@H](O[C@H]3OC(CNCCC(N)C4CC4)=CC[C@H]3N)[C@@H](N)C[C@H]2NC(=O)[C@@H](O)CN)OC[C@]1(C)O (stereo partly drawn) [Example 52, 6′-(3-Amino-3-cyclopropyl-propyl)-1-(3-amino-2(S)-hydroxy-propionyl)-sisomicin]	–	–	MIC AECO001 (E. coli ATCC 25922; [1]): A (MIC's of 1.0 μg/mL or less = A); MIC APAE001 (P. aeruginosa ATCC 27853; [2]): B (MIC's of greater than 1.0 μg/mL to 16.0 μg/mL = B)
CN[C@@H]1[C@@H](O)[C@@H](O[C@@H]2[C@@H](O)[C@H](O[C@H]3OC(CNCCCN)=CC[C@H]3N)[C@@H](N)C[C@H]2NC(=O)C2(O)CCNC2)OC[C@]1(C)O (stereo partly drawn) [Example 40]	1 to 16 µg/mL (≈ 1.62 to 25.9 µM)	1 to 16 µg/mL (≈ 1.62 to 25.9 µM)	–
CN[C@@H]1[C@@H](O)[C@@H](O[C@@H]2[C@@H](O)[C@H](O[C@H]3OC(CN)=CC[C@H]3NCCCCN)[C@@H](N)C[C@H]2NC(=O)[C@@H](O)CCN)OC[C@]1(C)O [Example 102, 2′-(4-Amino-butyl)-1-(4-amino-2(S)-hydroxy-butyryl)-sisomicin]	< 1 µg/mL	1 to 16 µg/mL (≈ 1.61 to 25.8 µM)	–
CN[C@@H]1[C@@H](O)[C@@H](O[C@@H]2[C@@H](O)[C@H](O[C@H]3OC(CN)=CC[C@H]3NC(=O)C(C)N)[C@@H](N)C[C@H]2NC(=O)[C@@H](O)CCN)OC[C@]1(C)O (stereo partly drawn) [Example 88, 2′-(2-Amino-propionyl)-1-(4-amino-2(S)-hydroxy-butyryl)-sisomicin]	1 to 16 µg/mL (≈ 1.61 to 25.8 µM)	1 to 16 µg/mL (≈ 1.61 to 25.8 µM)	–
CN[C@@H]1[C@@H](O)[C@@H](O[C@@H]2[C@@H](O)[C@H](O[C@H]3OC(CNCC4CC4)=CC[C@H]3N)[C@@H](N)C[C@H]2NC(=O)C2(O)CCNC2)OC[C@]1(C)O (stereo partly drawn) [Example 41]	< 1 µg/mL	1 to 16 µg/mL (≈ 1.63 to 26 µM)	–
CN[C@@H]1[C@@H](O)[C@@H](O[C@@H]2[C@@H](O)[C@H](O[C@H]3OC(CNCCC4(O)CNC4)=CC[C@H]3N)[C@@H](N)C[C@H]2NC(=O)[C@@H](O)CN)OC[C@]1(C)O [Example 70, 6′-(Ethyl-2-(3-hydroxy-azetidin-3-yl))-1-(3-amino-2(S)-hydroxy-propionyl)-sisomicin]	1 to 16 µg/mL (≈ 1.58 to 25.2 µM)	> 16 µg/mL	–
CN[C@@H]1[C@@H](O)[C@@H](O[C@@H]2[C@@H](O)[C@H](O[C@H]3OC(CNC[C@H]4C[C@H](N)C4)=CC[C@H]3N)[C@@H](N)C[C@H]2NC(=O)C2(O)CC(N)C2)OC[C@]1(C)O (stereo partly drawn) [Example 60]	< 1 µg/mL	1 to 16 µg/mL (≈ 1.55 to 24.9 µM)	–
CN[C@@H]1[C@@H](O)[C@@H](O[C@@H]2[C@@H](O)[C@H](O[C@H]3OC(CNC[C@H]4C[C@H](O)CN4)=CC[C@H]3N)[C@@H](N)C[C@H]2NC(=O)[C@@H](O)CN)CC[C@]1(C)O [Example 53, 6′-(Methyl-4(S)-hydroxy-pyrrolidin-2(R)-yl)-1-(3-amino-2(S)-hydroxy-propionyl)-sisomicin]	1 to 16 µg/mL (≈ 1.58 to 25.3 µM)	> 16 µg/mL	–
